From ChEMBL document CHEMBL1201862, “PubChem BioAssay data set” (2004)
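Briefly, cells in 96-well plates were exposed to five compound concentrations for 48 h, and endpoints were estimated by linear interpolation. GI50 is the concentration that inhibits growth by half.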 The source made the active and inactive calls. No stated cut-off is given here; in the data, active = GI50 up to about 1.1 µM and inactive = higher.

Tests used:
Assay in all cases: growth of human tumour cells (NCI), 48 h
[1] = test system: ACHN
[2] = test system: K562
[3] = test system: COLO 205
[4] = test system: NCI-H460
[5] = test system: SNB-19
[6] = test system: PC-3
[7] = test system: SN12C
[8] = test system: M14
[9] = test system: SK-MEL-28
[10] = test system: OVCAR-3
[11] = test system: SK-MEL-5
[12] = test system: 786-0
[13] = test system: NCI-H23
[14] = test system: MOLT-4
[15] = test system: NCI/ADR-RES
[16] = test system: MCF7
[17] = test system: UO-31
[18] = test system: U-251
[19] = test system: LOX IMVI
[20] = test system: Malme-3M
[21] = test system: HCT-116
[22] = test system: NCI-H226
[23] = test system: SW-620
[24] = test system: CCRF-CEM
[25] = test system: OVCAR-5
[26] = test system: CAKI-1
[27] = test system: MDA-N
[28] = test system: MDA-MB-435
[29] = test system: T47D
[30] = test system: UACC-62
[31] = test system: SNB-75
[32] = test system: HCC 2998
[33] = test system: HCT-15
[34] = test system: Hs-578T
[35] = test system: HT-29
[36] = test system: EKVX
[37] = test system: HOP-92
[38] = test system: SK-OV-3
[39] = test system: IGROV-1
[40] = test system: HOP-62
[41] = test system: OVCAR-8
[42] = test system: RPMI-8226
[43] = test system: SR
[44] = test system: SK-MEL-2
[45] = test system: SF-295
[46] = test system: DU-145
[47] = test system: RXF 393
[48] = test system: NCI-H522
[49] = test system: OVCAR-4
[50] = test system: BT-549
[51] = test system: UACC-257
[52] = test system: A498
[53] = test system: HL-60
[54] = test system: MDA-MB-231
[55] = test system: SF-268
[56] = test system: SF-539
[57] = test system: KM12
[58] = test system: A549
[59] = test system: TK-10

Measured: GI50

N#CC1N(C(=O)c2ccc(F)cc2)c2ccccc2N1C(=O)c1ccc(F)cc1
inactive: [1] 38.5 µM | [2] 28.2 µM | [3] 21.8 µM | [4] 38.2 µM | [5] > 100 µM | [6] 49.1 µM | [7] 77.8 µM | [8] 43.8 µM | [9] 43.9 µM | [10] 19.9 µM | [11] 23.9 µM | [12] 74.5 µM | [13] 50.4 µM | [14] 17.3 µM | [15] 26.7 µM | [16] 33 µM | [17] 37.7 µM | [18] 74.5 µM | [19] 29 µM | [20] 68.9 µM | [21] 42.3 µM | [22] 31.1 µM | [23] 47.9 µM | [24] 28 µM | [25] > 100 µM | [26] 62.8 µM | [27] 48.5 µM | [28] 46.1 µM | [29] 27.2 µM | [30] 37.6 µM | [31] 30.7 µM | [32] 39.7 µM | [34] 68.1 µM | [35] 33 µM | [36] 44.4 µM | [37] 18.5 µM | [38] > 100 µM | [39] 32.4 µM | [40] > 100 µM | [41] 48.1 µM | [42] 23.7 µM | [43] 70.3 µM | [44] > 100 µM | [45] > 100 µM | [46] 32.9 µM | [47] 71.6 µM | [48] 34.4 µM | [49] 35.7 µM | [50] 24.9 µM | [51] 67.6 µM | [52] > 100 µM | [53] 40.3 µM | [54] 46.7 µM | [55] > 100 µM | [56] 62.7 µM | [57] 91.6 µM | [58] > 100 µM | [59] 50.9 µM
31.3 µM: [33]

COc1ccc2nc3c([N+](=O)[O-])ccc4c3c(c2c1)N(CCCN(C)C)C(=S)N4CCCN(C)C
3.4 µM: [33]
inactive: [1] 4.1 µM | [2] 1.77 µM | [3] 1.54 µM | [4] 2.7 µM | [5] 9.71 µM | [6] 3.73 µM | [7] 5.11 µM | [8] 4 µM | [9] 18.1 µM | [10] 6.04 µM | [11] 4.94 µM | [12] 2.78 µM | [13] 8.97 µM | [14] 3.5 µM | [15] 6.62 µM | [16] 5.07 µM | [17] 7.85 µM | [18] 6.37 µM | [19] 3.28 µM | [20] 2.65 µM | [21] 2.1 µM | [22] 7.48 µM | [23] 2.62 µM | [24] 4.98 µM | [25] 14.6 µM | [26] 14.5 µM | [27] 8.13 µM | [28] 5.74 µM | [29] 20.5 µM | [30] 16 µM | [31] 8.41 µM | [32] 2.9 µM | [34] 7.94 µM | [35] 2.22 µM | [36] 3.74 µM | [37] 4.79 µM | [38] 12.6 µM | [39] 2.97 µM | [40] 5.19 µM | [41] 5.79 µM | [42] 5.51 µM | [43] 1.72 µM | [44] 16.1 µM | [45] 4.6 µM | [46] 5.16 µM | [47] 9.53 µM | [48] 1.53 µM | [49] 8.05 µM | [50] 11.8 µM | [51] 6.12 µM | [52] 17.7 µM | [53] 66.4 µM | [54] 7.28 µM | [55] 4.46 µM | [56] 4 µM | [57] 2.5 µM | [58] 5.45 µM | [59] 7.4 µM
